Measurements from paper PMC11847324, “A communication hub for phosphoregulation of kinetochore-microtubule attachment” (Current biology : CB, 2024).
No end group written: not given here. *: point of attachment. BODIPYFLEthylmaleimide = Cc1cc(C)n2c1C=C1C=CC(CCC(=O)NCCN3C(=O)CC(*)C3=O)=[N+]1[B-]2(F)F

Tests used:
[1] = test system: Ndc80c^dwarf Nuf2 N128A; experiment: Fluorescence polarization direct binding to Ndc80c^dwarf bearing Nuf2 N128A; design: species or system S. cerevisiae; conditions: Ndc80c^dwarf Nuf2 N128A relative to wild-type Ndc80c^dwarf; Figure 3D
Chain of Ndc80c^dwarf Nuf2 N128A (P40460 115-315 limits assumed): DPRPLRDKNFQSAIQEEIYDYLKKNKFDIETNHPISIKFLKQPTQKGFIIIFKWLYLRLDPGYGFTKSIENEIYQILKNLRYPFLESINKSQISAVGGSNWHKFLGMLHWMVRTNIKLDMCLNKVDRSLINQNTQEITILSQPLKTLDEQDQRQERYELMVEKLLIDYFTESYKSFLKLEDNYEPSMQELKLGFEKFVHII
Chain of Ndc80c^dwarf Nuf2 N128A (P33895 1-158 N128A limits assumed, further chain): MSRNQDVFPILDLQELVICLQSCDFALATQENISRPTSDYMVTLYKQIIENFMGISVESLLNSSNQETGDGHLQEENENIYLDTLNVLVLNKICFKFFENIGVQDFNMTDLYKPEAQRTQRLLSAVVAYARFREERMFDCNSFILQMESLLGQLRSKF
Chain of Ndc80c^dwarf (P33895 1-150): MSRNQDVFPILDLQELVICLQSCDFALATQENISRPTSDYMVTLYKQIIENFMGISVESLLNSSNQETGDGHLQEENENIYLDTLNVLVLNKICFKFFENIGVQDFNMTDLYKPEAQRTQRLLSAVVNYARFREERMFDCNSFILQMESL
Chain of Ndc80c^dwarf (P40460 115-310, further chain): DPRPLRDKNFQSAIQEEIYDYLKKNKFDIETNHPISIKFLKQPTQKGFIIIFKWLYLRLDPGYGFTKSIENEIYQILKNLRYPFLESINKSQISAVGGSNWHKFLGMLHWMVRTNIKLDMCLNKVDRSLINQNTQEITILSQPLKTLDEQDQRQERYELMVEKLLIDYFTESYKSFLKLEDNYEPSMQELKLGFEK
Method: (§1) Figure 3. Fluorescence polarization measurements of Ndc80c^dwarf binding peptides from the N-terminal extensions of Mps1 and Ipl1. (A) Polarization of fluorescence from 20 nM Bodipy-FL Mps1(137–171) (Mps1 residues 137–171 plus a C-terminal cysteine modified with Bodipy-FL -- see Methods) and Bodipy-FL Ipl1 (26–39;45–59) as a function of Ndc80c^dwarf concentration. (B) Competition binding experiment: unlabeled competitor peptides (see figure annotation) were added in twofold serial dilutions to Bodipy-FL Mps1(137–171) and Ndc80c^dwarf at final concentrations of 20 nM and 500 nM respectively. Loss of polarization indicates displacement of bound Bodipy-FL Mps1(137–171) by the competitor. (C) As in (B), with competitor Mps1(137–171) peptides containing mutations that reduce affinity for Ndc80c[40]. (D) Polarization of fluorescence from 20 nM Bodipy-FL Mps1(137–171) as a function of the concentration of Ndc80c^dwarf bearing mutations in Nuf2 that interfere with its Mps1 interaction in cells. […] For the Ipl1 peptide, the second copy of the motif, not used for the fluorescence polarization experiments, is shown in the bottom line.
(§2) We also determined the binding of the Mps1 peptide with two Ndc80c^dwarf constructs bearing mutations characterized in the other accompanying paper -- N128A and F8A P9A[48]. […]

[2] = test system: Ndc80c^dwarf Nuf2 F8A P9A; experiment: Fluorescence polarization direct binding to Ndc80c^dwarf bearing Nuf2 F8A P9A; design: species or system S. cerevisiae; conditions: Ndc80c^dwarf Nuf2 F8A P9A relative to wild-type Ndc80c^dwarf; Figure 3D
Chain of Ndc80c^dwarf Nuf2 F8A P9A (P40460 115-335 limits assumed): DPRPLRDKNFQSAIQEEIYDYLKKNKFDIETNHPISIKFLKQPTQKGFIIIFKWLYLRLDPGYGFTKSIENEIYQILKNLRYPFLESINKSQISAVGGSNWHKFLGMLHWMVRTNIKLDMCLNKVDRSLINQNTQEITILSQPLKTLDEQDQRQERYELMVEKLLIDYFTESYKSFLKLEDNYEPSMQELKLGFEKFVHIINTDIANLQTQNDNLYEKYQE
Chain of Ndc80c^dwarf Nuf2 F8A P9A (P33895 1-173 F8A/P9A limits assumed, further chain): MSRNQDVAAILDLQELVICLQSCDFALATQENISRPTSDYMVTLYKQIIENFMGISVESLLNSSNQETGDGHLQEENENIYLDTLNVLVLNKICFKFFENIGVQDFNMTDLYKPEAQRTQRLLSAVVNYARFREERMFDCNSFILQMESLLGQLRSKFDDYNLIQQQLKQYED
Method: as §1, §2

[3] = test system: Ndc80c^dwarf; experiment: Pulldown of GST-fusions of Mps1 segments by Ndc80c^dwarf immobilized on Ni-NTA agarose; format: binding, S. cerevisiae; conditions: 6-His Ndc80c^dwarf on Ni-NTA agarose, 30 min incubation, SDS-PAGE read-out; Figure 1B lane 12
Text: The long, N-terminal extension (residues 1–430) of yeast Mps1 has no immediately evident homology with sequences in metazoan Mps1 shown to interact with Ndc80c. […] We examined conservation among the yeast orthologs by iterative searches with the program Jackhmmer[50]. Using the N-terminal 430 residues of S. cerevisiae Mps1 as query, we identified five segments conserved among point-centromere yeasts (Figure 1A). We carried out a set of pulldown experiments, expressing them as GST-fusions and incubating them with the “dwarf” Ndc80c construct (Ndc80c^dwarf)[51] immobilized on Ni-NTA agarose (Figure 1B). In this format, we expected avidity from GST dimerization and multivalent display of Ndc80c to enhance the assay sensitivity. Ndc80c captured only the GST fusion of a peptide containing residues 151–171 (Figure 1B, lane 12), which include the most conserved region with a consensus sequence (151)RRxRRF(I/L/F)(3–4x)RxxxLGPAxR(170)(Figure 1C). Lysine appears occasionally in place of arginine, except for the invariant R at the end of the motif. […]
Figure 1. […] The bar graph above the N-terminal domain represents conservation determined by iterative searches with Jackhmmer[50] and shown as “information content”, defined in ref[68]. […]

| Substance | affinity weaker than for the wild-type protein [1] | affinity weaker than for the wild-type protein [2] | capture of GST fusion by immobilized Ndc80c^dwarf [3] |
| --- | --- | --- | --- |
| Bodipy-FL Mps1(137–171): Mps1 residues 137–171 plus a C-terminal cysteine modified with Bodipy-FL (RQNMKEDITAKYAERRSKRFLISNRTTKLGPAKRAC(BODIPYFLEthylmaleimide)) | about 2 logs | about 2 logs | – |
| GST fusion of a peptide containing residues 151–171: GST-fusion of Mps1 residues 151–171 expressed from pGEX-6P1 (GSGGSGGSGGSGGSERRSKRFLISNRTTKLGPAKR; also: GST fusion, end not given here) | – | – | captured |
